{
  "source": "patent US20260242413A1",
  "about": "“ENDOTOXIN NE[…]” (AMFERIA AB, priority 2023, published 2026)",
  "system": "E. coli (CCUG 29300)",
  "experiment": "Endotoxin binding of AMP functionalised crosslinked hydrogel particle dispersion, chromogenic LAL endotoxin assay",
  "format": "cell-based",
  "settings": "E. coli 10^6 CFU/ml, 37° C., 1 hour, 3 hours and 24 hours, FIG. 2 and 3",
  "note": "Where no end group is shown, it is not given here.",
  "data": [
    {"substance": "RRPRPRPRPWWWW-NH2 [RRP9W4N, PRELP derived amphiphilic antimicrobial peptide, free in PBS solution]", "values": [
      {"measurement": "endotoxin neutralisation", "value": "neutralised endotoxins in all measured durations of incubation"}
    ]}
  ]
}
